Values after ≈ are worked out from the molar mass of the structure shown.
What was measured:
[1] = test system: Staphylococcus aureus; assay: Antibacterial activity against methicillin-resistant Staphylococcus aureus N315 after 24 hrs by micro broth dilution method; format: functional; conditions: N315, 24 h
[2] = test system: Staphylococcus aureus; assay: Antibacterial activity against Staphylococcus aureus ATCC 25923 after 24 hrs by micro broth dilution method; format: functional; conditions: ATCC 25923, 24 h
[3] = test system: Bacillus subtilis; assay: Antibacterial activity against Bacillus subtilis after 24 hrs by micro broth dilution method; format: functional
[4] = test system: Micrococcus luteus; assay: Antibacterial activity against Micrococcus luteus ATCC 4698 after 24 hrs by micro broth dilution method; format: functional; conditions: NCTC 2665, 24 h
[5] = test system: Escherichia coli; assay: Antibacterial activity against Escherichia coli DH52 after 24 hrs by micro broth dilution method; format: functional; conditions: DH52, 24 h
[6] = test system: Escherichia coli; assay: Antibacterial activity against Escherichia coli JM109 after 24 hrs by micro broth dilution method; format: functional; conditions: JM109, 24 h
[7] = test system: Shigella dysenteriae; assay: Antibacterial activity against Shigella dysenteriae after 24 hrs by micro broth dilution method; format: functional
[8] = test system: Pseudomonas aeruginosa; assay: Antibacterial activity against Pseudomonas aeruginosa after 24 hrs by micro broth dilution method; format: functional
[9] = test system: Bacillus; assay: Antibacterial activity against Bacillus proteus ATCC 13315 after 24 hrs by micro broth dilution method; format: functional; conditions: ATCC 13315, 24 h
[10] = test system: Salmonella typhi; assay: Antibacterial activity against Bacillus typhi after 24 hrs by micro broth dilution method; format: functional, Salmonella enterica subsp. enterica serovar Typhi; conditions: Salmonella enterica
[11] = test system: Candida albicans; assay: Antifungal activity against Candida albicans after 24 hrs by two fold serial dilution based spectrophotometric analysis; format: functional
[12] = test system: Pichia norvegensis; assay: Antifungal activity against Candida mycoderma after 24 hrs by two fold serial dilution based spectrophotometric analysis; format: functional
[13] = test system: Cyberlindnera jadinii; assay: Antifungal activity against Candida utilis after 24 hrs by two fold serial dilution based spectrophotometric analysis; format: functional; conditions: Williopsis jadinii
[14] = test system: Aspergillus flavus; assay: Antifungal activity against Aspergillus flavus after 24 hrs by two fold serial dilution based spectrophotometric analysis; format: functional
[15] = test system: Saccharomyces cerevisiae; assay: Antifungal activity against Beer yeast after 24 hrs by two fold serial dilution based spectrophotometric analysis; format: functional
[16] = test system: Aspergillus flavus; assay: Potency index, ratio of fluconazole MIC to compound MIC for Aspergillus flavus; format: functional
[17] = test system: Shigella dysenteriae; assay: Potency index, ratio of norfloxacin MIC to compound MIC for Shigella dysenteriae; format: functional
[18] = test system: Shigella dysenteriae; assay: Potency index, ratio of chloromycin MIC to compound MIC for Shigella dysenteriae; format: functional
[19] = test system: Staphylococcus aureus; assay: Antibacterial activity against methicillin-resistant Staphylococcus aureus N315 after 1 passage; format: functional
[20] = test system: Staphylococcus aureus; assay: Antibacterial activity against methicillin-resistant Staphylococcus aureus N315 after 2 passages; format: functional
[21] = test system: Staphylococcus aureus; assay: Antibacterial activity against methicillin-resistant Staphylococcus aureus N315 after 3 passages; format: functional
[22] = test system: Staphylococcus aureus; assay: Antibacterial activity against methicillin-resistant Staphylococcus aureus N315 after 4 passages; format: functional
[23] = test system: Staphylococcus aureus; assay: Antibacterial activity against methicillin-resistant Staphylococcus aureus N315 after 5 passages; format: functional
[24] = test system: Staphylococcus aureus; assay: Antibacterial activity against methicillin-resistant Staphylococcus aureus N315 after 6 passages; format: functional
[25] = test system: Staphylococcus aureus; assay: Antibacterial activity against methicillin-resistant Staphylococcus aureus N315 after 7 passages; format: functional
[26] = test system: Staphylococcus aureus; assay: Antibacterial activity against methicillin-resistant Staphylococcus aureus N315 after 8 passages; format: functional

| Compound | MIC [1] | MIC [2] | MIC [3] | MIC [4] | MIC [5] | MIC [6] | MIC [7] | MIC [8] | MIC [9] | MIC [10] | MIC [11] | MIC [12] | MIC [13] | MIC [14] | MIC [15] | also measured |
| --- | --- | --- | --- | --- | --- | --- | --- | --- | --- | --- | --- | --- | --- | --- | --- | --- |
| BrCCCOCc1c(-c2ccccc2)nc2sc3ccccc3n12 | 8 µg/mL (≈ 19.9 µM) | 32 µg/mL (≈ 79.7 µM) | 4 µg/mL (≈ 9.97 µM) | 32 µg/mL (≈ 79.7 µM) | 16 µg/mL (≈ 39.9 µM) | 32 µg/mL (≈ 79.7 µM) | 4 µg/mL (≈ 9.97 µM) | 8 µg/mL (≈ 19.9 µM) | 16 µg/mL (≈ 39.9 µM) | 16 µg/mL (≈ 39.9 µM) | 4 µg/mL (≈ 9.97 µM) | 32 µg/mL (≈ 79.7 µM) | 64 µg/mL (≈ 159 µM) | 4 µg/mL (≈ 9.97 µM) | 8 µg/mL (≈ 19.9 µM) | Ratio [16]: 64; Ratio [17]: 4; Ratio [18]: 4 |
| CCOc1ccc2c(c1)sc1nc(-c3ccccc3)c(COCCCn3c([N+](=O)[O-])cnc3C)n12 | 16 µg/mL (≈ 32.5 µM) | 32 µg/mL (≈ 65.1 µM) | 16 µg/mL (≈ 32.5 µM) | 128 µg/mL (≈ 260 µM) | 16 µg/mL (≈ 32.5 µM) | 32 µg/mL (≈ 65.1 µM) | 8 µg/mL (≈ 16.3 µM) | 32 µg/mL (≈ 65.1 µM) | 32 µg/mL (≈ 65.1 µM) | 8 µg/mL (≈ 16.3 µM) | 32 µg/mL (≈ 65.1 µM) | 64 µg/mL (≈ 130 µM) | 256 µg/mL (≈ 521 µM) | 64 µg/mL (≈ 130 µM) | 8 µg/mL (≈ 16.3 µM) | – |
| O=[N+]([O-])c1cn(CCCCCOCc2c(-c3ccccc3)nc3sc4ccccc4n23)cn1 | 8 µg/mL (≈ 17.3 µM) | 32 µg/mL (≈ 69.3 µM) | 128 µg/mL (≈ 277 µM) | 256 µg/mL (≈ 555 µM) | 128 µg/mL (≈ 277 µM) | 128 µg/mL (≈ 277 µM) | 128 µg/mL (≈ 277 µM) | 512 µg/mL (≈ 1110 µM) | 64 µg/mL (≈ 139 µM) | 128 µg/mL (≈ 277 µM) | 16 µg/mL (≈ 34.7 µM) | 16 µg/mL (≈ 34.7 µM) | > 512 µg/mL | 64 µg/mL (≈ 139 µM) | 32 µg/mL (≈ 69.3 µM) | – |
| O=[N+]([O-])c1cn(CCCCCCCCCCOCc2c(-c3ccccc3)nc3sc4ccccc4n23)cn1 | 16 µg/mL (≈ 30.1 µM) | 32 µg/mL (≈ 60.2 µM) | 64 µg/mL (≈ 120 µM) | 128 µg/mL (≈ 241 µM) | 16 µg/mL (≈ 30.1 µM) | 64 µg/mL (≈ 120 µM) | 16 µg/mL (≈ 30.1 µM) | 64 µg/mL (≈ 120 µM) | 32 µg/mL (≈ 60.2 µM) | 64 µg/mL (≈ 120 µM) | 64 µg/mL (≈ 120 µM) | 64 µg/mL (≈ 120 µM) | 256 µg/mL (≈ 481 µM) | 128 µg/mL (≈ 241 µM) | 8 µg/mL (≈ 15 µM) | – |
| CCOc1ccc2c(c1)sc1nc(-c3ccccc3)c(COCCCCCn3cncn3)n12 | > 512 µg/mL | > 512 µg/mL | > 512 µg/mL | > 512 µg/mL | > 512 µg/mL | 128 µg/mL (≈ 277 µM) | 256 µg/mL (≈ 555 µM) | > 512 µg/mL | > 512 µg/mL | > 512 µg/mL | > 512 µg/mL | 256 µg/mL (≈ 555 µM) | 256 µg/mL (≈ 555 µM) | > 512 µg/mL | > 512 µg/mL | – |
| c1ccc(-c2nc3sc4ccccc4n3c2COCCCCCCCCCCn2cncn2)cc1 | 16 µg/mL (≈ 32.8 µM) | 32 µg/mL (≈ 65.6 µM) | 16 µg/mL (≈ 32.8 µM) | 64 µg/mL (≈ 131 µM) | 32 µg/mL (≈ 65.6 µM) | 64 µg/mL (≈ 131 µM) | 16 µg/mL (≈ 32.8 µM) | 32 µg/mL (≈ 65.6 µM) | 128 µg/mL (≈ 262 µM) | 16 µg/mL (≈ 32.8 µM) | 16 µg/mL (≈ 32.8 µM) | 16 µg/mL (≈ 32.8 µM) | > 512 µg/mL | 16 µg/mL (≈ 32.8 µM) | 16 µg/mL (≈ 32.8 µM) | – |
| c1ccc(-c2nc3sc4ccccc4n3c2COCCCn2cncn2)cc1 | 16 µg/mL (≈ 41.1 µM) | 4 µg/mL (≈ 10.3 µM) | 8 µg/mL (≈ 20.5 µM) | 64 µg/mL (≈ 164 µM) | 16 µg/mL (≈ 41.1 µM) | 16 µg/mL (≈ 41.1 µM) | 16 µg/mL (≈ 41.1 µM) | 4 µg/mL (≈ 10.3 µM) | 16 µg/mL (≈ 41.1 µM) | 32 µg/mL (≈ 82.2 µM) | 4 µg/mL (≈ 10.3 µM) | 32 µg/mL (≈ 82.2 µM) | 64 µg/mL (≈ 164 µM) | 16 µg/mL (≈ 41.1 µM) | 64 µg/mL (≈ 164 µM) | – |
| O=C(N[C@H](CO)[C@H](O)c1ccc([N+](=O)[O-])cc1)C(Cl)Cl [CHLORAMPHENICOL] | 16 µg/mL (≈ 49.5 µM) | 16 µg/mL (≈ 49.5 µM) | 32 µg/mL (≈ 99 µM) | 8 µg/mL (≈ 24.8 µM) | 32 µg/mL (≈ 99 µM) | 32 µg/mL (≈ 99 µM) | 16 µg/mL (≈ 49.5 µM) | 32 µg/mL (≈ 99 µM) | 32 µg/mL (≈ 99 µM) | 32 µg/mL (≈ 99 µM) | – | – | – | – | – | MIC [19]: 14 µM (≈ 4.52 µg/mL); MIC [20]: 14 µM (≈ 4.52 µg/mL); MIC [21]: 14 µM (≈ 4.52 µg/mL); MIC [22]: 33 µM (≈ 10.7 µg/mL); MIC [23]: 33 µM (≈ 10.7 µg/mL); MIC [24]: 33 µM (≈ 10.7 µg/mL); MIC [25]: 67 µM (≈ 21.6 µg/mL); MIC [26]: 67 µM (≈ 21.6 µg/mL) |
| CCOc1ccc2c(c1)sc1nc(-c3ccccc3)c(COCCCCCBr)n12 | > 512 µg/mL | > 512 µg/mL | 128 µg/mL (≈ 270 µM) | > 512 µg/mL | 128 µg/mL (≈ 270 µM) | > 512 µg/mL | 128 µg/mL (≈ 270 µM) | > 512 µg/mL | 128 µg/mL (≈ 270 µM) | > 512 µg/mL | 16 µg/mL (≈ 33.8 µM) | 128 µg/mL (≈ 270 µM) | > 512 µg/mL | 64 µg/mL (≈ 135 µM) | > 512 µg/mL | – |
| Cc1ncc([N+](=O)[O-])n1CCCCCCCCCCOCc1c(-c2ccccc2)nc2sc3ccccc3n12 | 16 µg/mL (≈ 29.3 µM) | 16 µg/mL (≈ 29.3 µM) | 16 µg/mL (≈ 29.3 µM) | 256 µg/mL (≈ 469 µM) | 16 µg/mL (≈ 29.3 µM) | 8 µg/mL (≈ 14.7 µM) | 32 µg/mL (≈ 58.6 µM) | 16 µg/mL (≈ 29.3 µM) | 16 µg/mL (≈ 29.3 µM) | 64 µg/mL (≈ 117 µM) | 8 µg/mL (≈ 14.7 µM) | 64 µg/mL (≈ 117 µM) | 128 µg/mL (≈ 235 µM) | 16 µg/mL (≈ 29.3 µM) | 256 µg/mL (≈ 469 µM) | – |
| CCOc1ccc2c(c1)sc1nc(-c3ccccc3)c(COCCCCCn3cnc([N+](=O)[O-])c3)n12 | > 512 µg/mL | 128 µg/mL (≈ 253 µM) | 256 µg/mL (≈ 506 µM) | 512 µg/mL (≈ 1010 µM) | 128 µg/mL (≈ 253 µM) | > 512 µg/mL | 16 µg/mL (≈ 31.6 µM) | 512 µg/mL (≈ 1010 µM) | 512 µg/mL (≈ 1010 µM) | 256 µg/mL (≈ 506 µM) | 128 µg/mL (≈ 253 µM) | 256 µg/mL (≈ 506 µM) | 128 µg/mL (≈ 253 µM) | 256 µg/mL (≈ 506 µM) | 128 µg/mL (≈ 253 µM) | – |
